According to patent EP0777471B1, “INHIBITION OF LEUKOTRIENE BIOSYNTHESIS WITH UREA DERIVATIVES” (MINNESOTA MINING AND MANUFACTURING COMPANY, priority 1994, dated 1996):
pIC50: −log10 of the molar value. “And” between values parts separate entries of the source, which are not always exact repeats. Identical values can stand only once. Like-named read-outs stand apart in the source and are kept apart here.

How the values were obtained:
[1] = test system: production of Leukotriene C4 in mouse peritoneal macrophages; assay: In vitro mouse peritoneal macrophage Leukotriene C4 inhibition (zymosan-stimulated, LTC4 radioimmunoassay); format: cell-based; settings: Zymosan 50 µg/mL
Experimental: The test method described below measures the ability of compounds to inhibit the production of Leukotriene C4 in mouse peritoneal macrophages.
Mice (female, CD-1, weighing 25 g) are euthanized by exposure to carbon dioxide. The peritoneal cavity is exposed by peeling back the abdominal skin. A 5 mL portion of media (M199 containing 1% fetal bovine serum, 100 units/mL of penicillin, 100 µg/mL of streptomycin, 20 units/mL of heparin and no glutamine) is injected into the exposed peritoneal cavity of each mouse. The lavage fluid is removed and pooled to yield approximately1 X 10^6 macrophages/mL. A 2 mL portion of lavage fluid is added to each well of a 24 well sterile multidish and the macrophages are allowed to adhere to the plate for 2 hours at 37°C in a 5% carbon dioxide atmosphere. The media is removed and each well is washed with 2 mL of phosphate buffered saline (PBS). A 1 mL portion of media, without heparin, but containing 5 µCi/mL of 3H-myoinositol is added to each well and the plates are incubated overnight at 37°C in a 5% carbon dioxide atmosphere. The media is removed and the cells are washed twice with 2 mL portions of PBS. A 1 mL portion of Puck's saline formulation A containing 1 mM calcium chloride, 1 mM magnesium chloride and 10 mM lithium chloride is added to each well. (The Puck's formulation is made first as a 10X solution which contains 4 g of potassium chloride, 80 g of sodium chloride and 10 g of glucose per liter. The Puck's saline formulation A is made using 10 mL of the 10X Puck's formulation, 0.47 mL of 7.5% sodium bicarbonate and 2 mL of 1M N-2-hydroxyethylpiperazine-N'-2-ethanesulfonic acid per 100 mL.)
Compounds are dissolved in dimethyl sulfoxide. Compounds are tested at concentrations of 10, 1 and 0.1 µM. Each concentration is tested in duplicate.
A 1 µL portion of compound solution or vehicle (DMSO) is added to each well and the plates are incubated for 15 minutes at 37°C in a 5% carbon dioxide atmosphere. Zymosan is then added to provide a final concentration of 50 µg/mL in each well and the plate is incubated for 1 to 2 hours at 37°C in a 5% carbon dioxide atmosphere.
Following incubation 200 µL portions of media are transferred to 12 X 75 mm tubes. The tubes are either assayed immediately or stored at -20°C until they can be assayed.
The media is assayed for the presence of Leukotriene C4 by radioimmunoassay which is performed according to the manufacturer's (Advanced Magnetics; Cambridge, MA) instructions.

5-lipoxygenase = molecular target: T1, 5-lipoxygenase (Homo sapiens, UniProt P09917); assay: 5-Lipoxygenase inhibition in human leukocytes (A23187-stimulated, LTC4 radioimmunoassay); format: cell-based; settings: human leukocytes, A23187 Calcium Ionophore, LTC4 formed; read-out: IC50
T1 construct: Whole human blood is collected by venipuncture into EDTA; endogenous in cells; host or cells: leukocytes isolated from whole human blood (dextran sedimentation, hypotonic lysis)
T1 sequence (P09917 1-674): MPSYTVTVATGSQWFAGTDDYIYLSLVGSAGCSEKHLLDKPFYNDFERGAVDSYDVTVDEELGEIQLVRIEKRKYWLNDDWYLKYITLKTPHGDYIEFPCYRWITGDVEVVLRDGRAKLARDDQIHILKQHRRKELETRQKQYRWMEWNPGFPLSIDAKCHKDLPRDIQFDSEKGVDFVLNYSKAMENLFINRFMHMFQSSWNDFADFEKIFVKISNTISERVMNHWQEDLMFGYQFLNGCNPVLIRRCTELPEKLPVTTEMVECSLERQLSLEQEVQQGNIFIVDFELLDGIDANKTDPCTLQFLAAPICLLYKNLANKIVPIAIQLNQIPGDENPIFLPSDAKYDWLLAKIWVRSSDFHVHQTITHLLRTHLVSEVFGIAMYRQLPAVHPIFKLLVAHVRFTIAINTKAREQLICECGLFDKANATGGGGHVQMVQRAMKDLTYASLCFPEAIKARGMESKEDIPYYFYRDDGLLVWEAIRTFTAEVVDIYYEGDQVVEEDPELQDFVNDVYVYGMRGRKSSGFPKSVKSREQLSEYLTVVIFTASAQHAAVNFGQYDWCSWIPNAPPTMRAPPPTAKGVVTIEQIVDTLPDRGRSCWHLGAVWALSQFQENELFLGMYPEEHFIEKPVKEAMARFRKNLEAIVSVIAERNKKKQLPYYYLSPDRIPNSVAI
Experimental: The test method described below measures the ability of compounds to inhibit 5-lipoxygenase activity in human leukocytes.
Whole human blood is collected by venipuncture into EDTA (1.4 mL of 0.25M per 60 mL of whole blood). The red blood cells are sedimented with a 6% dextran/0.9% sodium chloride solution at a ratio of 25 mL whole blood to 15 mL dextran solution. The blood/dextran combination is mixed by inversion and the red blood cells are allowed to settle out for 45 minutes at ambient temperature. The plasma/dextran supernatant is removed then centrifuged at ambient temperature at 3000 rpm for 10 minutes. The plasma/dextran supernatant is removed and the cells are resuspended in 10 mL of the plasma/dextran solution. […] The pellet is then resuspended into Tris buffer containing 1 mM calcium chloride to provide approximately 1.0 X 10^7 cells/mL.
Compounds are dissolved in dimethyl sulfoxide. […] Each concentration is tested in duplicate.
A 15 µL portion of Tris buffer containing 1 mM calcium chloride is added to each well of a 96 well microtiter plate. A 1 µL portion of drug solution or vehicle (dimethyl sulfoxide) is added to each well followed by the addition of an 75 µL portion of the cell suspension. The plates are gently mixed then allowed to stand at ambient temperature for 10 minutes. A 10 µL portion of 30 µM A23187 Calcium Ionophore (prepared by dissolving the ionophore in DMSO and then diluting 1:80 into the Tris buffer) is added to each well except the wells that contain the blanks (The blank wells measure the level of LTC4 production in the absence of A23187.). The plates are gently mixed then incubated at 37°C for 10 minutes.
Following incubation the plates are centrifuged at 2000 rpm for 1.5 minutes and the supernatant is removed as quickly as possible to stop the reaction. The supernatants are frozen at -20°C until they are assayed.
The supernatants are assayed for the presence of Leukotriene C4 by radioimmunoassay which is performed according to the manufacturer's (Advanced Magnetics; Cambridge, MA) instructions.

[2] = test system: production of Leukotriene B4; assay: Rat ex vivo Leukotriene B4 inhibition (oral dosing, blood challenged with A23187); format: in vivo, Rats; settings: two hours post dose
Experimental: The test method described below measures the ability of a compound when administered orally to rats to inhibit the production of Leukotriene B4 in their blood which is drawn and challenged.
Rats (CD, male, non-fasted, 250 g) are lightly anesthetized with carbon dioxide and an approximately 0.75 mL sample of whole blood is obtained via cardiac puncture. The sample is dispensed into 12 X 75 mm polypropylene tubes containing 8-10 µL of 10,000 units/mL heparin, mixed and then maintained on ice. The rats are allowed to recover approximately one hour then dosed orally with compound dissolved in PEG 400 at a 5 mL/Kg volume. Five (5) rats are utilized per group. Two (2) hours post dose the rats are again anesthetized with carbon dioxide and the blood sampled again via cardiac puncture.
Duplicate 200 µL portions of blood are added to 1.0 mL polypropylene tubes. A 10 µL portion of 1mM A23187 Calcium Ionophore in dimethyl sulfoxide/Tris buffer is added to each tube. The tubes are gently vortexed then incubated in a 37°C water bath for 30 minutes. The tubes are then centrifuged at 4000 rpm for 10 minutes. 50 µL portions of plasma are transferred to 1.0 mL tubes containing 200 µL of methanol. The tubes are vortexed then placed in the freezer overnight.
The tubes are removed from the freezer then centrifuged at 4000 rpm for 10 minutes. […] portions of the methanol/plasma supernatant and 10 µL methanol dilutions of LTB4 standard curve are transferred to 96 well v-bottom microtiter plates. The plates are vacuum dried at 40°C. A 40 µL portion of LTB4 radioimmunoassay buffer is added to each well. The plate is bath sonicated for 5 minutes then assayed according to the manufacturer's (Advanced Magnetics; Cambridge, MA) instructions. Percent inhibition values are obtained by comparing the level of LTB4 in the post-dose samples to the level in the pre-dose samples according to the equation below. % Inhibition =((LTB4 pre-dose) - (LTB4 post-dose))/((LTB4 pre-dose))X 100 [formula]

[3] = test system: production of Leukotriene B4 (LTB4); assay: Dog ex vivo Leukotriene B4 inhibition (oral dosing, blood challenged with calcium ionophore); format: in vivo, beagle dogs; settings: each entry one dog, negative = stimulation of LTB4 production; for % Inhibition 6 hour: 6 hour post dose; for inhibition at 5 mg/kg: Canis lupus familiaris, po
Experimental: The test method described below measures the ability of a compound when administered orally to dogs to inhibit the production of Leukotriene B4 (LTB4) in their blood which is drawn and challenged at selected time points.
The test is conducted in beagle dogs (male and female; about 10 Kg). Prior to starting, the neck area of the beagle is shaved to allow easy access to the jugular vein. A 3-4 mL sample of blood is drawn from the jugular vein into a heparinized vacutainer. The dog is then dosed using a tube long enough to reach its stomach. The compound is dissolved in PEG 400 at a concentration such that the appropriate dose can be administered in approximately 5 mL. Immediately after the compound is given, a flush using 5 mL of vehicle is given to rinse the dosing tube. At selected time points following the dose, a 3-4 mL sample of blood is drawn.
The blood samples that have been drawn are challenged as soon as possible. A 0.5 mL portion of blood is aliquoted into 3 tubes (1 mL microtiter tubes). A 1 µL portion of 25 mM calcium ionophore in dimethyl sulfoxide is added to 2 of the tubes. A 1 µL portion of dimethyl sulfoxide is added to the third tube. The tubes are lightly mixed then placed in a 37°C water bath for 30 minutes. The tubes are centrifuged at 11,000 rpm for 3 minutes and the plasma supernatant is transferred to clean tubes. A 50 µL portion of this plasma is added to a I mL microtiter tube containing 200 µL of methanol. The tubes are placed in the freezer at -20°C for at least 1 hour then centrifuged at 2000 rpm for 10 minutes. A 10 µL portion of the methanol supematant is dried under vacuum at ambient temperature and then reconstituted in LTB4 buffer. The amount of LTB4 in the sample is determined by radioimmunoassay performed according to the manufacturer's (Advanced Magnetics; Cambridge, MA) instructions. Percent inhibition values are obtained by comparing the level of LTB4 in the post-dose sample to the level in the pre-dose sample according to the equation below. % Inhibition =((LTB4 predose) - (LTB4 postdose))/((LTB4 predose))X 100 [formula]
A number of the compounds that are useful in the practice of the method of the invention were tested. The results are shown in Table 15 below where each entry represents the results from one dog. A negative number indicates stimulation of LTB4 production. All compounds were tested at a dose of 5 mg/Kg.

[4] = 1 h, 1 hour post dose, read-out: % Inhibition 1 hour
[5] = 2 h, 2 hour post dose, read-out: % Inhibition 2 hour

For `CSc1ccc(NC(=O)N(O)C2CCCCC2)cc1` [Compound 31, 1-Cyclohexyl-1-hydroxy-3-[4-(methylthio)phenyl]urea], the pIC50 [1] was 6.70, the pIC50 (5-lipoxygenase) was 8.22 and the “%I” value ([2]; 25 mg/Kg) was 40%.

With `COc1cccc(NC(=O)NO)c1` [Compound 33, 1-hydroxy-3-(3-methoxyphenyl)urea] the pIC50 (5-lipoxygenase) was 5.04 and the “%I” value ([2]; 25 mg/Kg) was 26%.

`CN(O)C(=O)Nc1ccc(F)cc1` [Compound 11, 3-(4-fluorophenyl)-1-hydroxy-1-methylurea] was tested, and the pIC50 (5-lipoxygenase) was 7.31, the “%I” value ([2]; 20 mg/Kg) was 26% and the “%I” value ([2]; 50 mg/Kg) was 20%. The “% Inhibition 4 hour” value ([3]; 5 mg/Kg, 4 hour post dose) was 77% and 41%, the “% Inhibition 6 hour” value ([3]; 5 mg/Kg) was -17% and 30% and the inhibition at 5 mg/kg [3, 4] was 100%. It also gave an inhibition at 5 mg/kg [3, 5] of 100%.

Work on `CN(O)C(=O)Nc1cccc(SC(F)(F)F)c1` [Compound 4, 1-hydroxy-1-methyl-3-[3-(trifluoromethylthio)phenyl]urea] yielded a pIC50 (5-lipoxygenase) of 7.57.

For `CN(O)C(=O)Nc1cccc(OS(=O)(=O)C(F)(F)F)c1` [Compound 2, 1-hydroxy-1-methyl-3-[3-(trifluoromethylsulfonoxy)phenyl]urea], the pIC50 (5-lipoxygenase) was 7.40.

`CSc1cccc(NC(=O)N(O)CC(C)C)c1` [Compound 58, 1-Hydroxy-1-(2-methylpropyl)-3-[3-(methylthio)phenyl]urea] was tested, and the pIC50 [1] was 7.00, the pIC50 (5-lipoxygenase) was 8.70 and the “% Inhibition 1 hour” value ([3]; 5 mg/Kg, 1 hour post dose) was 1% and -24%. The “% Inhibition 2 hour” value ([3]; 5 mg/Kg, 2 hour post dose) was -21% and -35%, the “% Inhibition 4 hour” value ([3]; 5 mg/Kg, 4 hour post dose) was -43% and -63% and the “% Inhibition 6 hour” value ([3]; 5 mg/Kg) was 8% and -34%.

For `Cc1cccc(C)c1NC(=O)N(O)C(C)C` [Compound 26, 3-(2,6-dimethylphenyl)-1-hydroxy-1-(1-methylethyl)urea], the pIC50 [1] was under 6.00 and the pIC50 (5-lipoxygenase) was under 5.00.

For `CSc1cccc(NC(=O)N(C)O)c1` [Compound 3, 1-hydroxy-1-methyl-3-[3-(methylthio)phenyl]urea], the pIC50 (5-lipoxygenase) was 7.09, the “%I” value ([2]; 5 mg/Kg) was 39% and the “% Inhibition 2 hour” value ([3]; 5 mg/Kg, 2 hour post dose) was 99%. The “% Inhibition 4 hour” value ([3]; 5 mg/Kg, 4 hour post dose) was 95%, the “% Inhibition 6 hour” value ([3]; 5 mg/Kg) was 51% and 84% and the inhibition at 5 mg/kg [3, 4] was 100%. For the same compound, the inhibition at 5 mg/kg [3, 5] was 100% and the inhibition at 5 mg/kg ([3]; 4 h, 4 hour post dose, read-out: % Inhibition 4 hour) was 83%.

`COc1cccc(NC(=O)N(O)C(C)C)c1` [Compound 22, 1-hydroxy-3-(3-methoxyphenyl)-1-(1-methylethyl)urea] was tested, and the pIC50 [1] was 6.52, the pIC50 (5-lipoxygenase) was 6.13 and the “% Inhibition 2 hour” value ([3]; 5 mg/Kg, 2 hour post dose) was 78% and -140%. For the same compound, the inhibition at 5 mg/kg [3, 4] was 100%.

`CCCN(O)C(=O)Nc1ccccc1` [Compound 55, 1-hydroxy-3-phenyl-1-propylurea] was tested, and the pIC50 (5-lipoxygenase) was 7.28 and the “%I” value ([2]; 50 mg/Kg) was 8%.
